Assay results taken from US20260265178A1, “TERTIARY AMINE DERIVATIVES AND THEIR USES FOR TREATING A VIRAL INFECTION” (ENYO PHARMA, priority 2022, published 2026).
Read-outs that look alike come from different tables or passages of the source.

Experiments:
[1] = system: Respiratory Syncytial Virus (RSV); experiment: Cytopathic effect (CPE) assay, HEp-2 cells infected by RSV, CellTiter-Glo viability readout; type: cell-based; details: for IC50: HEp-2 cells, RSV MOI 0.5, 3 days, CellTiter-Glo luminescence
Description: Cytopathic Effect (CPE) Assay Experimental Procedure:
• RSV titer: 6.9×10^6 pfu/ml • MOI=pfu used for infection/cell number • 1) HEp-2 cells were seeded in 384-well plates at 5000 cells per well in 25 μl assay medium and incubated for 24 h at 37° C. in 5% CO2. Cells were seeded in each well expect for the top row, which contains medium only (low control). • 2) Compounds were dispensed using the Echo550 Liquid Handler. All compounds were used at 10 mM stock concentration. The positive control Ribavirin was included as control compound in all assays. • 3) Cells were expected to double once over 24 h. • 4) The cells were infected the next day at RSV MOI 0.5, adding 5 μl virus diluted in assay medium. • 5) Non-infected cells were treated with 5 μl assay medium (high control) • 6) Plates were centrifuged at 400 rpm, 10 sec to allow the virus to sink onto the cells. • 7) Cells were incubated at 37° C. in 5% CO2 for 3 days. • 8) 10 μl CellTiter-Glo® (Promega) was added to all wells. • 9) The plate was incubated at RT for 30 min. • 10) Luminescence was measured on the Envision plate reader.

[2] = system: recombinant HRSV expressing the firefly luciferase; experiment: In vivo anti-hRSV activity in a mouse model of infection (recombinant HRSV expressing firefly luciferase, bioluminescence); details: BALB/C mice, 1 mpk intranasally, 5 days post infection, versus mock-treated, p<0.05
Description: FIG. 24: In vivo evaluation of compound #21 anti-hRSV activity in a mouse model of infection. FIG. 24A: Bioluminescence was measured by intranasal injection of 50 μl of D-luciferin (200 mM) and capture of photon emission from the chest at 5 days post infection using the IVIS system. Dorsal and ventral views of mice representative of the results are shown. FIG. 24B: Comparative bioluminescence between compound #21 and mock-treated mice 5 days post infection. Each data point represents mean±s.e.m. Brown-Forsythe Test and Welch ANOVA followed by Dunnett's multiple comparison test; * p<0.05
An engineered recombinant HRSV expressing the firefly luciferase was used in a mouse model of infection described in Rameix-Welti et al., Nature Communications, 2014. BALB/C mice were infected with 50×10^4 p.f.u. of virus and treated intranasally by 1 mpk compound #21 or vehicle (10 mice/group). Bioluminescence was measured by intranasal injection of 50 μl of D-luciferin (200 mM) and capture of photon emission from the chest at 5 days post infection using the IVIS system.
Dorsal and ventral views of mice representative of the results are shown at FIG. 24A. Comparative bioluminescence between compound #21 and mock-treated mice 5 days post infection are shown at FIG. 24B. Each data point represents mean±s.e.m. Brown-Forsythe Test and Welch ANOVA followed by Dunnett's multiple comparison test; * p<0.05.

[3] = human respiratory syncytial virus, 72 h, read-out: IC50

Q: For `COC(=O)c1cccc(CN(Cc2cccc(C(=O)OC)c2)[C@H](CO)c2cccc(Br)c2)c1` [Compound #3], which IC50 ([1]; read-out: IC50) is on record?
A: Its IC50 is 3400 nM.

Q: Which IC50 ([1]; read-out: IC50) does the source give for `COC[C@H](c1cccc(Br)c1)N(Cc1cccc(C(=O)OC)c1)Cc1cccc(C(=O)OC)c1` [Compound #4] here?
A: The IC50 was 7 nM.

Q: `COC[C@H](c1cccc(C(=O)O)c1)N(Cc1cccc(C(=O)OC)c1)Cc1cccc(C(=O)OC)c1` [Compound #5] was tested. Which IC50 ([1]; read-out: IC50) did it give?
A: The IC50 was 2000 nM.

Q: For `COC[C@H](c1cccc(C(=O)O)c1)N(Cc1cccc(C(=O)O)c1)Cc1cccc(C(=O)O)c1` [Compound #6], which IC50 ([1]; read-out: IC50) is on record?
A: Its IC50 is 200 nM.

Q: For `NC(=O)c1cccc(CN(Cc2cccc(C(N)=O)c2)Cc2ccc3[nH]ncc3c2)c1` [Compound #7], which IC50 [1, 3] is on record?
A: Its IC50 is 3900 nM.

Q: `NC(=O)c1cccc(CN(Cc2cccc(C(N)=O)c2)C[C@@H]2CCCN(C(N)=O)C2)c1` [Compound #8] was tested. Which IC50 [1, 3] did it give?
A: Its IC50 is 100 nM.

Q: How did the IC50 [1, 3] turn out when `CNC(=O)COCCN(Cc1cccc(C(N)=O)c1)Cc1cccc(C(N)=O)c1` [Compound #9] was run?
A: The IC50 was 2000 nM.

Q: With `COc1ccc(CN(Cc2cccc(C(N)=O)c2)Cc2cccc(C(N)=O)c2)cc1C(N)=O` [Compound #10] as the molecule, how does the IC50 [1, 3] read?
A: Its IC50 is 5 nM.

Q: For `NC(=O)c1cccc(CN(Cc2cccc(C(N)=O)c2)C[C@H]2CCCN(C(N)=O)C2)c1` [Compound #11], which IC50 [1, 3] is on record?
A: The IC50 was 4.5 nM.

Q: With `NC(=O)c1cccc(CN(Cc2cccc(C(N)=O)c2)CC2CCCNC2)c1` (stereo not drawn) [Compound #12] as the molecule, how does the IC50 [1, 3] read?
A: Its IC50 is 130 nM.

Q: Which IC50 [1, 3] does the source give for `C[C@@H](c1cccc(C(N)=O)c1)N(Cc1cccc(C(N)=O)c1)Cc1cccc(C(N)=O)c1` [Compound #13] here?
A: The IC50 was 4.4 nM.

Q: With `COc1cc(CN(Cc2cccc(C(N)=O)c2)Cc2cccc(C(N)=O)c2)cc(C(N)=O)c1` [Compound #14] as the molecule, how does the IC50 [1, 3] read?
A: Its IC50 is 70 nM.

Q: With `CC(c1cccc(C(N)=O)c1)N(Cc1cccc(C(N)=O)c1)Cc1cccc(C(N)=O)c1` (stereo not drawn) [Compound #15] as the molecule, how does the IC50 [1, 3] read?
A: Its IC50 is 1.5 nM.

Q: With `NC(=O)COCCN(Cc1cccc(C(N)=O)c1)Cc1cccc(C(N)=O)c1` [Compound #16] as the molecule, how does the IC50 [1, 3] read?
A: The IC50 was 350 nM.

Q: How did the IC50 [1] turn out when `NC(=O)c1cccc(CN(Cc2cccc(C(N)=O)c2)CC2CCN(C(N)=O)C2)c1` (stereo not drawn) [Compound #17] was run?
A: Its IC50 is “Not calculable”.

Q: `NC(=O)c1cccc(CN(Cc2cccc(C(N)=O)c2)CC2CCCN(C(N)=O)C2)c1` (stereo not drawn) [Compound #18] was tested. Which IC50 [1, 3] did it give?
A: Its IC50 is 8 nM.

Q: For `NC(=O)c1cccc(CN(Cc2cccc(C(N)=O)c2)CC2(F)CCCN(C(N)=O)C2)c1` (stereo not drawn) [Compound #20], which IC50 [1, 3] is on record?
A: Its IC50 is 130 nM.

Q: Which results are given for `COC[C@H](c1cccc(C(N)=O)c1)N(Cc1cccc(C(N)=O)c1)Cc1cccc(C(N)=O)c1` [Compound #21, 3-[[[(1S)-1-(3-carbamoylphenyl)-2-methoxy-ethyl]-[(3-carbamoylphenyl)methyl]amino]methyl]benzamide]?
A: % viability of cells infected by RSV ([1]; compared with comparative and positive control compounds, FIGS. 1-23A): higher % of viability; IC50 times lower than IC50 of comparative compounds ([1]; compound #21 versus comparative compounds): ≥ 7 times; IC50 times lower than IC50 of the closest structural compound #4 ([1]; compound #21 versus compound #4): around 50 times; IC50 [1, 3]: 0.15 nM; bioluminescent signal in the lung [2]: significantly reduced

Q: With `Cc1cn2nc([C@@H]3CCCCN3C(=O)c3cc(Cl)ccc3NS(C)(=O)=O)cc2nc1N1CC[C@H](N)C1` [Presatovir] as the molecule, how does the IC50 [1, 3] read?
A: Its IC50 is 1.1 nM.

Q: With `NC(=O)c1ncn([C@@H]2O[C@H](CO)[C@@H](O)[C@H]2O)n1` [Ribavirin] as the molecule, how does the IC50 [1, 3] read?
A: Its IC50 is 15000 nM.
